From patent publication US6699877B2 (Gruenenthal GmbH, priority 2000, dated 2004)

What was measured:
NMDA receptor channel = molecular target: T1, NMDA receptor channel (Rattus norvegicus, UniProt P35439); test: NMDA/glycine-induced ionic currents in RNA-injected Xenopus oocytes (two-electrode voltage clamp); assay type: cell-based
T1 construct: were micro-injected with total RNA from brain tissue of adult rats; expressed in transfected cells; host or cells: Xenopus laevis oocytes injected with total RNA from adult rat brain
Method: NMDA/Glycine-induced Ionic Currents in RNA-injected Xenopus Oocytes
The experiment to determine functional changes in the NMDA receptor channel due to the compound according to the invention of Formula I was carried out on oocytes of the South African clawed frog, Xenopus laevis. Neuronal NMDA receptor channels were formed for this purpose after injection of RNA from rats' brain into oocytes and were measured by coapplication of NMDA and glycine-activated ionic currents.
Xenopus oocytes from stages V and VI (Dumont, J. N., Journal of Morphology, Vol. 136, 1972) were micro-injected with total RNA from brain tissue of adult rats (100-130 ng/cell) and kept in the culture medium (composition in mmol/l: 88.0 NaCl, 1.0 KCl, 1.5 CaCl2, 0.8 MgSO4, 2.4 NaHCO3, 5 HEPES, 100 IU/ml penicillin, 100 μg/ml streptomycin, pH 7.4) for up to 10 days at 20° C. Transmembranous ionic currents were recorded as in conventional two-electrode voltage clamp technology with a holding potential of −70 mV (P. Bloms-Funke P, M. Madeja, U. Muβhoff, E.-J. Speckman, Neuroscience Letters, Vol. 205, p. 115, 1996). […] To test the effects of substances brought about via the glycine B-binding site of the NMDA receptor channel, the glycine dosage/response curve was recorded with and without the respective compound according to the invention. […] The data was analyzed using Igor-Pro software (Version 3.1, WaveMetrics USA). […]

AMPA receptor channels = test: AMPA-induced ionic currents in RNA-injected Xenopus oocytes; assay type: cell-based, rat; details: 10 μmol/l compound; AMPA 100 μmol/l; n = 2
Method: Xenopus oocytes from stages V and VI (Dumont, J. N., Journal of Morphology, Vol. 136, 1972) were micro-injected with total RNA from brain tissue of adult rats (100-130 ng/cell) and kept in the culture medium (composition in mmol/l: 88.0 NaCl, 1.0 KCl, 1.5 CaCl2, 0.8 MgSO4, 2.4 NaHCO3, 5 HEPES, 100 IU/ml penicillin, 100 μg/ml streptomycin, pH 7.4) for up to 10 days at 20° C. Transmembranous ionic currents were recorded as in conventional two-electrode voltage clamp technology with a holding potential of −70 mV (P. Bloms-Funke P, M. Madeja, U. Muβhoff, E.-J. Speckman, Neuroscience Letters, Vol. 205, p. 115, 1996). The OTC interface and the Cellworks Software were used for recording data and controlling the test apparatus (npi, FRG). […] To test the effects of substances brought about via the glycine B-binding site of the NMDA receptor channel, the glycine dosage/response curve was recorded with and without the respective compound according to the invention. […] The data was analyzed using Igor-Pro software (Version 3.1, WaveMetrics USA). […] The significance for unpaired measured quantities is determined by the Mann-Whitney U-Test and for paired measured quantities by the Wilcoxon test (Sysstat. SPSS Inc., USA). EC50 values are calculated according to the following formula: […]

Kb (NMDA receptor channel; NMDA 100 μmol/l with glycine 0-100 μmol/l, oocytes injected with rat brain RNA, read-out: NMDA/glycine-induced ionic currents pA2 value of glycine dosage/response curve (converted)): 398 nM
Structure (SMILES): O=C(O)C1Nc2cc(Cl)cc(Cl)c2C2C=CCC12 (stereo not drawn) [Example 2, 7,9-dichloro-3a,4,5,9b-tetrahydro-3H-cyclopenta[c]quinoline-4-carboxylic Acid]
Effect on the glycine dosage/response curve (FIG. 1) (NMDA receptor channel; RNA-injected oocytes, amplitude standardized to NMDA/glycine (100/10 μmol/l)): displacement of the glycine dosage/response curve to the right
AMPA-induced ionic currents Inhibition with 10 μmol/l of compounds according to the invention (AMPA receptor channels): 5.4% (n = 2)
